In US20080026996A1, “Selective Vpac2 Receptor Reptide Agonists” (ELI LILLY AND COMPANY, priority 2004, published 2008):
Where no end group is shown, it is not given here. [ ]: non-standard residue; d: D form. The star is where a group is joined. hArg = N=C(N)NCCCC[C@H](N)C(=O)O; Orn = NCCC[C@H](N)C(=O)O; Hexanoyl = CCCCCC(=O)*; Aib = CC(C)(N)C(=O)O

Experiments:
[1] = biological target: T1, human VPAC2 (Homo sapiens, UniProt P41587); assay: Alpha screen cAMP in vitro potency, human VPAC2 receptor; assay type: cell-based; conditions: cAMP generation; single result from two analyses performed in a single run; read-out: Human VPAC2 Receptor: Alpha Screen EC50
T1 construct: expressed in transfected cells
T1 sequence (P41587 24-438): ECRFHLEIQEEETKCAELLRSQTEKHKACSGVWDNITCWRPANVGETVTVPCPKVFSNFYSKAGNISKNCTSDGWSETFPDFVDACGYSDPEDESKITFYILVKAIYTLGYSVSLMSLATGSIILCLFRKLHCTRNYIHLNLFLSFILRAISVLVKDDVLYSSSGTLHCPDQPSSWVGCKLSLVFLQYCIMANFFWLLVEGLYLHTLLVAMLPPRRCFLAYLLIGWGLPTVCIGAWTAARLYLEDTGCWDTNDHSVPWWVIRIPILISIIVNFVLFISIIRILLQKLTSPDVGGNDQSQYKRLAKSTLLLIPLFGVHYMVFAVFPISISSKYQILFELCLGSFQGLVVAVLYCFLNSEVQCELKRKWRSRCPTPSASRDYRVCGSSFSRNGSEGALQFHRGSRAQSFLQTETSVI
Outline: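 Under reduced light, acceptor beads accompany the stimuli during a 60-minute incubation of cells in stimulation buffer (50,000 per well point). Donor beads go in with lysis buffer for a further 60–120 minutes, and the resulting AlphaScreen signal indicates cAMP levels.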

[2] = biological target: T2, human VPAC1 (Homo sapiens, UniProt P32241); assay: Filter binding assay, membranes of cells transiently transfected with human VPAC1, 125I-labeled VIP tracer (Table 2); design: expressed in transfected cells; conditions: read-out: Human VPAC1 Receptor Binding
T2 sequence (P32241 31-457): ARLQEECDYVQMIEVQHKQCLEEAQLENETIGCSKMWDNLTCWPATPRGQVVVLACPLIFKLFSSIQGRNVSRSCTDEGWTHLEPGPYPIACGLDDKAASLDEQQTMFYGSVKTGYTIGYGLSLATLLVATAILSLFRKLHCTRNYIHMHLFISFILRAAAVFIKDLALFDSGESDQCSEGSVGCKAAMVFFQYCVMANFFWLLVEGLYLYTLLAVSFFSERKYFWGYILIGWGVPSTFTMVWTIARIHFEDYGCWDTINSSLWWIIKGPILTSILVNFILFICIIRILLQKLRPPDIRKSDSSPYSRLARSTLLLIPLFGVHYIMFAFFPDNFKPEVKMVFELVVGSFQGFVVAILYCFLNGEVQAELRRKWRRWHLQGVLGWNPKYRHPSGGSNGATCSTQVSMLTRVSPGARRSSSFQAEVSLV
Outline: (§1)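 Competition binding of agonists against radiotracer on receptor membranes (2.5 μg) in 25 mM HEPES pH 7.4 with 0.5% protease-free BSA, about 40000 cpm tracer, 1 hour with shaking. Bound tracer was separated by filtration on PEI-presoaked, BSA-blocked glass-fibre filters, washed and counted by scintillation.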

[3] = biological target: T3, human PAC1 (Homo sapiens, UniProt P41586); assay: Filter binding assay, membranes of cells transiently transfected with human PAC1, 125I-labeled PACAP-27 tracer (Table 2); design: expressed in transfected cells; conditions: read-out: Human PAC1 Receptor Binding
T3 sequence (P41586 21-468): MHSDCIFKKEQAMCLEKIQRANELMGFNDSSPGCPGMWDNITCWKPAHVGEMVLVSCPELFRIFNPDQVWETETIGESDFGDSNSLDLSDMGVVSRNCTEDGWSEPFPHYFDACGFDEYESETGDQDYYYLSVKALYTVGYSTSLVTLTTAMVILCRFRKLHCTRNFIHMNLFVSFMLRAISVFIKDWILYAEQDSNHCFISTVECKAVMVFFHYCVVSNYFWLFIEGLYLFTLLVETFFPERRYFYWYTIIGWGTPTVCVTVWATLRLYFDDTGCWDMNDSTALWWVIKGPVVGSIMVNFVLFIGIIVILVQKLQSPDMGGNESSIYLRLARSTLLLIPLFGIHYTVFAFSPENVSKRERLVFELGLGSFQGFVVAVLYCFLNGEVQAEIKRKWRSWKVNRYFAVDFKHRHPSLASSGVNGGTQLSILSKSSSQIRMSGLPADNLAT
Outline: as §1

[4] = biological target: T1, human VPAC2; assay: Filter binding assay, membranes of stable VPAC2 cell line, 125I-labeled VIP tracer (Table 2); conditions: read-out: Human VPAC2 Receptor Binding
Outline: as §1

[5] = Rat serum stability studies (remaining active peptide by DiscoveRx cAMP on CHO-VPAC2 cells); assay type: in vitro ADME
Outline: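 Rat serum, 18 h: +aprotinin aliquot at 4° C, no-aprotinin aliquot at 37° C. Then 30 min RT step, supernatant removed, 1 h shaking at 300 rpm. DiscoveRx cAMP kit on CHO-VPAC2; EC50 from cAMP data vs standards.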

[6] = biological target: T4, rat VPAC2 receptor (Rattus norvegicus, UniProt P35000); assay: DiscoveRx in vitro potency, CHO-PO cells transiently transfected with rat VPAC 2 receptor DNA; assay type: cell-based; design: expressed in transfected cells; host or cells: CHO-PO, transient
T4 sequence (P35000 23-437): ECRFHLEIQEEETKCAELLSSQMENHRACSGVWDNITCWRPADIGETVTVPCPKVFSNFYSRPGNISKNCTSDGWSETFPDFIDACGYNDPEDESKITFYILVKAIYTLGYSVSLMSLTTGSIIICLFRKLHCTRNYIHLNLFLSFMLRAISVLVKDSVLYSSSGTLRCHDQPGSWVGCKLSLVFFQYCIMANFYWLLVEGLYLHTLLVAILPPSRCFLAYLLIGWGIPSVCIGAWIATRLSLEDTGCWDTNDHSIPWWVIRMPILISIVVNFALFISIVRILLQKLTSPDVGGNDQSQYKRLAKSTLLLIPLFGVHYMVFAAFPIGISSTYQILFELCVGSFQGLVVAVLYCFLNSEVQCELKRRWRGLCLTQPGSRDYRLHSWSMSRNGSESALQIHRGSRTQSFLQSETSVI
Protocol: Also, the cells are washed twice. […] The stimuli are present for 30 minutes. Then, the assay buffer is gently removed.

Compound	EC50 [1] [nM]	IC50 [2] [nM]	IC50 [3] [nM]	IC50 [4] [nM]	Rat Serum Stability (Estimated purity in % after 72 hours) [5] [%]	Rat Serum Stability (estimated purity in % after 18 hours) [5] [%]	EC50 [6] [nM]
CCCCCC(=O)N[C@@H](Cc1c[nH]cn1)C(=O)N[C@@H](CO)C(=O)N[C@@H](CC(=O)O)C(=O)N[C@@H](C)C(=O)N[C@H](C(=O)N[C@@H](Cc1ccccc1)C(=O)N[C@H](C(=O)N[C@@H](CC(=O)O)C(=O)N[C@@H](CC(N)=O)C(=O)N[C@@H](Cc1ccc(O)cc1)C(=O)N[C@H](C(=O)N[C@@H](CCCN)C(=O)N[C@@H](CC(C)C)C(=O)N[C@@H](CCCNC(=N)N)C(=O)NC(C)(C)C(=O)N[C@@H](CCC(N)=O)C(=O)N[C@H](C(=O)N[C@@H](C)C(=O)N[C@@H](C)C(=O)NC(C)(C)C(=O)N[C@@H](CCCCN)C(=O)N[C@@H](Cc1ccc(O)cc1)C(=O)N[C@@H](CC(C)C)C(=O)N[C@@H](CCC(N)=O)C(=O)N[C@@H](CO)C(=O)N[C@H](C(=O)N[C@@H](CCCN)C(=O)N[C@@H](CC(N)=O)C(=O)N[C@@H](CCCN)C(=O)NCC(=O)NCC(=O)N1CCC[C@H]1C(=O)N[C@@H](CO)C(=O)N[C@@H](CO)C(=O)NCC(=O)N[C@@H](C)C(=O)N1CCC[C@H]1C(=O)N1CCC[C@H]1C(=O)N1CCC[C@H]1C(=O)N[C@@H](CO)C(=O)O)[C@@H](C)CC)C(C)C)[C@@H](C)O)[C@@H](C)O)C(C)C [Agonist P326]	0.21	> 3000	> 25000	0.33	49.6	90.10	0.09
Hexanoyl-HSDAVFTDNYTRLK[Aib]QVAA[Aib]KYLQSIKNKRYGGPSSGAPPPS [Agonist P318]	0.32	> 3000	> 25000	0.63		29.95	0.09
CCCCCC(=O)N[C@@H](Cc1c[nH]cn1)C(=O)N[C@@H](CO)C(=O)N[C@@H](CC(=O)O)C(=O)N[C@@H](C)C(=O)N[C@H](C(=O)N[C@@H](Cc1ccccc1)C(=O)N[C@H](C(=O)N[C@@H](CC(=O)O)C(=O)N[C@@H](CC(N)=O)C(=O)N[C@@H](Cc1ccc(O)cc1)C(=O)N[C@H](C(=O)N[C@@H](CCCNC(=N)N)C(=O)N[C@@H](CC(C)C)C(=O)N[C@@H](CCCNC(=N)N)C(=O)NC(C)(C)C(=O)N[C@@H](CCC(N)=O)C(=O)N[C@H](C(=O)N[C@@H](C)C(=O)N[C@@H](C)C(=O)NC(C)(C)C(=O)N[C@@H](CCCCN)C(=O)N[C@@H](Cc1ccc(O)cc1)C(=O)N[C@@H](CC(C)C)C(=O)N[C@@H](CCC(N)=O)C(=O)N[C@@H](CO)C(=O)N[C@H](C(=O)N[C@@H](CCCN)C(=O)N[C@@H](CCCN)C(=O)NCC(=O)NCC(=O)N1CCC[C@H]1C(=O)N[C@@H](CO)C(=O)N[C@@H](CO)C(=O)NCC(=O)N[C@@H](C)C(=O)N1CCC[C@H]1C(=O)N1CCC[C@H]1C(=O)N1CCC[C@H]1C(=O)N[C@@H](CO)C(=O)O)[C@@H](C)CC)C(C)C)[C@@H](C)O)[C@@H](C)O)C(C)C [Agonist P352]	0.14	> 3000		0.6	2.2	45.09	0.09
Hexanoyl-HSDAVFTDNYTRLR[Aib]QKAA[Aib]KYLQSIKNKRYGGPSSGAPPPS [Agonist P323]	0.23	> 3000		0.32		16.81	0.07
Hexanoyl-HSDAVFTDQYTRLR[Aib]QVAA[Aib]KYLQSIKQKRYGGPSSGAPPPS [Agonist P315]	0.19	> 3000		0.29		24.00	0.04
Hexanoyl-HSDAVFTDNYTRLR[Aib]QVAA[Aib][Orn]YLQSIKNKRYGGPSSGAPPPS [Agonist P342]	0.21	> 3000		0.35		25.96	0.06
Hexanoyl-HSDAVFTDNYT[Orn]LR[Aib]QVAA[Aib]KYLQSIKNKRYGGPSSGAPPPS [Agonist P344]	0.13	> 3000		0.25	43.0	50.19	0.06
CCCCCC(=O)N[C@@H](Cc1c[nH]cn1)C(=O)N[C@@H](CO)C(=O)N[C@@H](CC(=O)O)C(=O)N[C@@H](C)C(=O)N[C@H](C(=O)N[C@@H](Cc1ccccc1)C(=O)N[C@H](C(=O)N[C@@H](CC(=O)O)C(=O)N[C@@H](CC(N)=O)C(=O)N[C@@H](Cc1ccc(O)cc1)C(=O)N[C@H](C(=O)N[C@@H](CCCCNC(=N)N)C(=O)N[C@@H](CC(C)C)C(=O)N[C@@H](CCCNC(=N)N)C(=O)NC(C)(C)C(=O)N[C@@H](CCC(N)=O)C(=O)N[C@H](C(=O)N[C@@H](C)C(=O)N[C@@H](C)C(=O)NC(C)(C)C(=O)N[C@@H](CCCCN)C(=O)N[C@@H](Cc1ccc(O)cc1)C(=O)N[C@@H](CC(C)C)C(=O)N[C@@H](CCC(N)=O)C(=O)N[C@@H](CO)C(=O)N[C@H](C(=O)N[C@@H](CCCCNC(=N)N)C(=O)N[C@@H](CC(N)=O)C(=O)N[C@@H](CCCCNC(=N)N)C(=O)N[C@@H](CCCCNC(=N)N)C(=O)N[C@@H](Cc1ccc(O)cc1)C(=O)NCC(=O)NCC(=O)N1CCC[C@H]1C(=O)N[C@@H](CO)C(=O)N[C@@H](CO)C(=O)NCC(=O)N[C@@H](C)C(=O)N1CCC[C@H]1C(=O)N1CCC[C@H]1C(=O)N1CCC[C@H]1C(=O)N[C@@H](CO)C(=O)O)[C@@H](C)CC)C(C)C)[C@@H](C)O)[C@@H](C)O)C(C)C [Agonist P338]	0.46	> 3000		0.76		36.61	0.07
Hexanoyl-HSDAVFTDNYTRL[hArg][Orn]QVAAKKYLQSIKNKRYGGPSSGAPPPS [Agonist P308]	0.26	262		0.34		0.97	0.09
